Experiments:
[1] = target: T1, IP receptor (Homo sapiens, UniProt P43119); assay: IP receptor binding/cAMP in HEL cells ([3H]-iloprost binding, Assay 1; iloprost-induced cAMP production, Assay 2); conditions: compounds of about 40 to 90% purity, read-out: In vitro activity grade (IC50 class)
T1 construct: one million cells in 160 μl aliquot of cell suspension were put in a well of 96 well plate; host or cells: HEL 92.1.7 human erythroleukemia cells (whole cells)
Method: [Measurement of the [^3H]-iloprost Binding to HEL Cells] (Assay 1)
A human erythloleukemia cell line, HEL 92.1.7, was purchased from American Type Culture Correction and maintained in RPMI-1640 medium (Gibco BRL) supplemented with 10% fetal calf serum (FCS), 2 mM glutamine, 4.5 g/L glucose, 10 mM Hepes, 1 mM sodium pyruvate, 100 U/ml penicillin, and 100 μg/ml streptomycin in a humidified 5% CO2 atmosphere at 37° C. Cells were collected with centrifugation and washed with binding assay buffer (BAB: 50 mM Tris-HCl, 5 mM MgCl2 (pH 7.5)). Cells were suspended at the density of 6.25×10^6 cells/ml in BAB, and one million cells in 160 μl aliquot of cell suspension were put in a well of 96 well plate (Falcon). Then, 20 μl of compound solution, 100 μM of iloprost (for non-specific binding), or buffer alone (total binding), diluted with 1% DMSO in BAB was added. Finally, another 20 μl containing [^3H]-iloprost (0.02 μCi, 0.5-1 pmol) in BAB was added and incubated at room temperature for 30 min with a gentle shaking. Cell suspension was then transferred to a well of MultiScreen plate with GF/C glass filters (Millipore) to harvest cells. Cells were washed twice with 200 μl of ice-cold BAB and the plate was kept at 55° C. for 30 min to dry filters. The filter in the well was punched out to a counting tube and 2 ml of Ultima Gold XR (Packard) was added. [^3H]-radio activity in the filter was measured by a liquid scintillation counter (Beckman, USA).
[Iloprost-Induced cAMP Production Assay in HEL Cells] (Assay 2)
HEL cells were collected with centrifugation and washed with cAMP assay buffer (CAB: Hank's balanced salt solution, 17 mM Hepes, 0.1% bovine serum albumin, 1 mM IBMX, 0.4% DMSO, and 1 mM L-ascorbic acid sodium salt (pH 7.4)). Cells were suspended at the density of 2.5×10^5 cells/ml in CAB, and twenty thousand cells in 80 μl aliquot of cell suspension were put in a well of 96 well plate (Falcon). Then, 10 μl of compound solution diluted with 1% DMSO in CAB or buffer alone was added. The plate was incubated at 37° C. for 30 min. Then, another 10 μl containing 100 nM iloprost in CAB or buffer alone was added and further incubated at 37° C. for 30 min. cAMP content in the well was measured by a cAMP ELISA kit (Applied Biosystems, USA).
The data corresponds to the compounds as yielded by solid phase synthesis and thus to levels of purity of about 40 to 90%. For practical reasons, the compounds are grouped in three classes of activity as follows: IC50=A<0.1 μM≦B<1 μM≦C

T1 sequence (P43119 whole entry): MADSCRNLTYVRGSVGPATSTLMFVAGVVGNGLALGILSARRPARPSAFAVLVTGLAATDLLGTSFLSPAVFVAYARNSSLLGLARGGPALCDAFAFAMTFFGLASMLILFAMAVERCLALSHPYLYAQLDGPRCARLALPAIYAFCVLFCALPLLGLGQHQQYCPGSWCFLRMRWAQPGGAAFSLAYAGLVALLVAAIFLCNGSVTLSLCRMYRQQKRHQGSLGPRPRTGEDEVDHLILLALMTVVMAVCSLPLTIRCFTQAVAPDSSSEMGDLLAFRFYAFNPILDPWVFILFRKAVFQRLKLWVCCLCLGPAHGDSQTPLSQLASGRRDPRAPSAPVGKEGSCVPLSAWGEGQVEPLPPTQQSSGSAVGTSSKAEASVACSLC

Row | IC50 [1] [nM] | melting point | Structure (SMILES)
1 | < 100 | 166 to 168 °C | COc1cc(COc2ccc(-c3cccc(NC(Cc4ccccc4)C(=O)O)c3)cc2)cc(OC)c1 (stereo not drawn) [Example 24-3]
2 | < 100 | 210 to 213 °C (dec.) | CC(C)COc1ccc(-c2cc(NC(Cc3ccccc3)C(=O)O)ncn2)cc1 (stereo not drawn) [Example 2-17]
3 | < 100 | 85 to 90 °C | CCCCC(Nc1cc(-c2ccc(OCc3ccccc3F)cc2)ncn1)C(=O)O (stereo not drawn) [Example 2-34]
4 | < 100 | 126 to 128 °C | O=C(O)C(Cc1ccc(F)cc1)Nc1cc(-c2ccc(OCC3CC3)cc2)ncn1 (stereo not drawn) [Example 1-42]
5 | < 100 | 137 to 139 °C | O=C(O)[C@H](Cc1ccccc1)Nc1ccnc(-c2ccc(OCc3ccccc3)cc2)c1 [Example 28-1, N-{2-[4-(Benzyloxy)phenyl]pyridin-4-yl}phenylalanine]
6 | > 1000 | 265 to 267 °C | CC(Cc1cccc(O)c1)(Nc1cc(-c2ccc(OCc3ccccc3)cc2)ncn1)C(=O)O (stereo not drawn) [Example 1-35]
7 | < 100 | 169 °C | O=C(O)C(Cc1cccc(O)c1)Nc1cc(-c2ccc(OCc3ccccc3)cc2)ncn1 (stereo not drawn) [Example 2-30]
8 | 100 to 1000 | 110 to 120 °C | CCCCC(Nc1cc(-c2ccc(-c3ccccc3)cc2)ncn1)C(=O)O (stereo not drawn) [Example 1-56]
9 | < 100 | 186 to 188 °C | O=C(O)C(Cc1ccccc1)Nc1ncnc(-c2ccc(OCc3ccccc3)cc2)n1 (stereo not drawn) [Example 1-30]
10 | < 100 | 125 to 128 °C | O=C(O)C(Cc1ccccc1)Nc1cc(-c2ccc(OCC3CCCC3)cc2)ncn1 (stereo not drawn) [Example 2-20]
11 | 100 to 1000 | 135 to 138 °C (dec.) | O=C(O)C(Cc1ccccc1)Nc1cc(-c2ccc(-c3cccc4ccccc34)cc2)ncn1 (stereo not drawn) [Example 11-7]
12 | < 100 | 214 to 216 °C (dec.) | O=C(O)[C@H](Cc1ccccc1)Nc1cc(-c2ccc(/C=C/c3ccccc3)cc2)ncn1 [Example 7-1, N-(6-{4-[(E)-2-Phenylvinyl]phenyl}pyrimidin-4-yl)phenylalanine]
13 | > 1000 | 217 to 220 °C (dec.) | O=C(O)C(Cc1ccccc1)Nc1cc(-c2ccc(NS(=O)(=O)c3ccc(F)cc3)cc2)ncn1 (stereo not drawn) [Example 15-2]
14 | > 1000 | 180 to 185 °C | O=C(O)[C@H](Cc1ccccc1)Nc1cc(-c2ccc(OCC3CC3)cc2)ncn1 [Example 1-49]
15 | < 100 | 139 to 142 °C (dec.) | O=C(O)C(Cc1ccccc1)Nc1cc(-c2ccc(-c3ccc4c(c3)OCO4)cc2)ncn1 (stereo not drawn) [Example 11-2]
16 | 100 to 1000 | 203 to 206 °C (dec.) | COc1ccc(-c2cc(NC(Cc3ccccc3)C(=O)O)ncn2)cc1 (stereo not drawn) [Example 2-13]
17 | 100 to 1000 | 244 to 246 °C | CC(C)CC(Nc1cc(-c2ccc(OCc3ccccc3)cc2)ncn1)C(=O)O (stereo not drawn) [Example 1-15]
18 | 100 to 1000 | 105 to 107 °C | O=C(O)C(Cc1ccccc1)Nc1cc(-c2ccc(Cc3ccc(Cl)cc3)cc2)ncn1 (stereo not drawn) [Example 18-3]
19 | < 100 | 182 to 185 °C | O=C(O)C(Cc1ccccc1)Nc1cccc(-c2ccc(OCCn3cccc3)cc2)c1 (stereo not drawn) [Example 24-7]
20 | < 100 | 187 °C | CC(Cc1ccccc1)(Nc1cc(-c2ccc(OCc3ccccc3)cc2)ncn1)C(=O)O (stereo not drawn) [Example 1-19]
21 | < 100 | 90 to 93 °C | COc1cccc(COc2ccc(-c3cc(NC(Cc4ccccc4)C(=O)O)ncn3)cc2)c1 (stereo not drawn) [Example 2-4]

Row | IC50 [1] [nM] | melting point | Structure (SMILES)
22 | < 100 | 135 to 137 °C (dec.) | CSc1ccc(-c2ccc(-c3cc(NC(Cc4ccccc4)C(=O)O)ncn3)cc2)cc1 (stereo not drawn) [Example 11-3]
23 | > 1000 | 223 to 227 °C | O=C(O)C(Cc1ccccc1)Nc1cc(-c2ccc(O)cc2)ncn1 (stereo not drawn) [Example 2-5]
24 | < 100 | 216 to 218 °C | O=C(O)[C@H](Cc1ccccc1)Nc1cc(-c2ccc(OCC3CC3)cc2)ncn1 [Example 2-1, N-{6-[4-(Cyclopropylmethoxy)phenyl]pyrimidin-4-yl}phenylalanine]
25 | < 100 | 166 to 169 °C | O=C(O)C(Cc1ccc(Cl)cc1)Nc1cc(-c2ccc(OCC3CC3)cc2)ncn1 (stereo not drawn) [Example 1-40]
26 | 100 to 1000 | 105 to 107 °C | O=C(O)C(Cc1ccccn1)Nc1cc(-c2ccc(OCC3CC3)cc2)ncn1 (stereo not drawn) [Example 1-44]
27 | < 100 | 210 to 213 °C (dec.) | O=C(O)C(Cc1ccccc1)Nc1cc(-c2ccc(OCC3CCC3)cc2)ncn1 (stereo not drawn) [Example 2-15]
28 | < 100 | 235 to 239 °C | O=C(NO)C(Cc1ccccc1)Nc1cc(-c2ccc(OCc3ccccc3)cc2)ncn1 (stereo not drawn) [Example 26-1, N-{6-[4-(Benzyloxy)phenyl]pyrimidin-4-yl}-N-hydroxyphenylalaninamide]
29 | < 100 | 118 to 120 °C | O=C(O)C(Cc1ccccc1)Nc1cc(-c2ccc(OCC3CCCCC3)cc2)ncn1 (stereo not drawn) [Example 2-8]
30 | < 100 | 190 to 193 °C (dec.) | O=C(O)C(Cc1ccccc1)Nc1cc(-c2ccc(OCc3cccc(O)c3)cc2)ncn1 (stereo not drawn) [Example 2-14]
31 | 100 to 1000 | 56 °C | CCC(C)C(Nc1cc(-c2ccc(OCc3ccccc3)cc2)ncn1)C(=O)O (stereo not drawn) [Example 1-11]
32 | < 100 | 110 to 113 °C | O=C(O)C(Cc1ccccc1)Nc1cc(-c2ccc(OCc3ccncc3)cc2)ncn1 (stereo not drawn) [Example 2-29]
33 | 100 to 1000 | 98 to 101 °C | O=C(O)C(Cc1ccccc1)Nc1cc(-c2ccc(Cc3ccc(F)cc3)cc2)ncn1 (stereo not drawn) [Example 18-2]
34 | 100 to 1000 | 120 to 123 °C | COc1cc(-c2ccc(-c3cc(NC(Cc4ccccc4)C(=O)O)ncn3)cc2)cc(OC)c1OC (stereo not drawn) [Example 11-12]
35 | > 1000 | 81 to 84 °C | O=C(O)C(Cc1ccccc1)Nc1cccc(-c2ccc(OCc3ccccc3)cc2)n1 (stereo not drawn) [Example 3-3]
36 | < 100 | 228 to 230 °C (dec.) | O=C(O)C(Cc1ccccc1)Nc1cc(-c2ccc(OCc3ccc(F)cc3)cc2)ncn1 (stereo not drawn) [Example 2-7]
37 | < 100 | 207 to 210 °C (dec.) | O=C(O)C(Cc1ccccc1)Nc1cc(-c2ccc(OCc3cc(F)cc(F)c3)cc2)ncn1 (stereo not drawn) [Example 2-11]
38 | < 100 | 123 to 126 °C | O=C(c1ccc(Cl)cc1)c1ccc(-c2cc(NC(Cc3ccccc3)C(=O)O)ncn2)cc1 (stereo not drawn) [Example 17-5]
39 | < 100 | 177 to 178 °C | O=C(O)C(Cc1ccccn1)Nc1ncnc(-c2ccc(OCc3ccccc3)cc2)c1F (stereo not drawn) [Example 1-45]
40 | < 100 | 233 to 236 °C | O=C(O)C(Cc1ccc(O)cc1)Nc1cc(-c2ccc(OCc3ccccc3)cc2)ncn1 (stereo not drawn) [Example 1-26]
41 | 100 to 1000 | > 300 °C | O=Cc1c(N[C@@H](Cc2ccccc2)C(=O)O)ncnc1-c1ccc(OCc2ccccc2)cc1 [Example 22-1, N-{6-[4-(Benzyloxy)phenyl)-5-formylpyrimidin-4-yl}phenylalanine]
42 | 100 to 1000 | 145 to 148 °C (dec.) | O=C(Cc1ccccc1)Nc1ccc(-c2cc(NC(Cc3ccccc3)C(=O)O)ncn2)cc1 (stereo not drawn) [Example 14-3]
